Entries after “also recorded” stand apart in the source; their conditions may differ. No end group written: not given here.
Tests used:
[1] = test system: LPS-induced endotoxic shock; experiment: Endotoxic shock assay: survival of mice after lethal dose of LPS + D-Gal; format: in vivo, mouse; conditions: lethal dose LPS + control peptide
Method: (§1) (A) Weight-matched wild-type mice (n=15) were injected intraperitoneal (i.p.) with a lethal dose of LPS (1 mg D-Gal+12.5 ng LPS per gram body weight) followed immediately by tail vein injection of DMSO (black line), 40 µg/g SCpep as control (green line) or […] PIMAP39 (red line). The treated mice were monitored for their behavior and mortality every hour. The survival time of each treated mouse was graphed. […] (B) Blood was collected every 2 hours post injection for a total duration of 6 hours. Mice were warmed under heating lamps to promote blood flow and a small incision was made on the tail. About 10-50 μl of blood was collected per animal at each time point (2, 4 or 6 hours). […] Pooled plasma samples from the mice within each group were measured in triplets by ELISA (Abraxis) to see the effects of PIMAP39 on TNF-α production. ELISA immunoreactivity was quantitated using a microplate reader (Bio-Rad) and the results from the 6 hr mark were graphed (only the data for LPS+DMSO and LPS+PIMAP39 are presented here due to the similarity between LPS+DMSO and LPS+SCepetide). […]
(§2) To investigate how PIMAP39 mediates endotoxic shock, 3 month old, weight matched mice were treated with a lethal dose of LPS (12.5 ng LPS+1 mg D-Gal per gram body weight) followed immediately by a tail vein injection of PIMAP39 or controls. The treated mice were monitored for their behavior and mortality every hour. […]

[2] = test system: TNF-α; experiment: Plasma TNF-α by ELISA in the endotoxic shock assay; format: in vivo, mouse; conditions: 6 hr mark
Method: as §1, §2

[3] = test system: white blood cells within the liver sections; experiment: Fluorescence microscopy detection of FITC-labeled PIMAP39 in mouse liver sections after tail vein injection; format: in vivo; conditions: 1 mg FITC-PIMAP39 by tail vein injection, one hour post injection, vs DMSO alone
Method: Macrophage samples: Cells (5×10^3) from 3 month old mice were seeded over cover slips (22 mm) in 6-well plates and were treated with 500 ng/ml FITC-PIMAP39 (B) or DMSO alone (A) and continuously incubated overnight. Cover slips were removed and cells were stained with 50 nM LysoTracker Red DND-99 (Invitrogen) for 1.5 hours and then air-dried. Tissue section samples: Mice were treated with 1 mg of FITC-PIMAP39 (E, F) or DMSO alone as control (C, D), by tail vein injection as described. One hour post injection mice were sacrificed and their livers were harvested. Harvested livers were set in uniform orientations in molds using Histoprep™ (Fisher). 10 μm thick cross-sections were cut and transferred with a paintbrush to glass slides followed by H & E staining. Cross-sections were made at −24° C. using an HM505E cryostat (Microm). Both the treated cells and sections above were exposed to visible light for structural identification (C & E) and fluorescent light for signal location (A, B, D & F) by Olympus BX40 microscope at 200× (A & B) or 1000× (C-F) magnification and photographed. The FITC-PIMAP39-induced fluorescent signal in some macrophages (B) or in the leukocytes within the veins of the liver (F) was observed. The images were taken with a MicroFIRE camera under exposure time (1 second for fluorescent light, 30 second for visible light). […]

Sequence	time at which deaths occurred [1] [h]	time at which most mice became sick [1] [h]	plasma TNF-α compared with LPS+DMSO [2]	presence / uptake of peptide in white blood cells in vivo (liver sections, fluorescent signal) [3]
VTGKLTDTEVVTAYVIDEPKYVCRVTGK [SCpep]	6 to 8	3 to 4	similarity	
KYGATTVVRVCEVTYDKTPLEKDGITVV [PIMAP39]				cell permeable; also recorded: taken up
